pIC50: −log10 of the molar value. Where a name gives a salt, the structure may show the parent alone.
Columns and labels:
[1] = system: cells; conditions: high levels of 4μ8C; cited from earlier work
[2] = system: XBP1s-luc 293 LUC; assay: cellular PD assay, XBP1s-LUC reporter (Example 903); assay type: cell-based; conditions: Table 1; read-out: XBP1s-luc 293 LUC (IC50)
How it was run: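 A luciferase fusion, in frame and expressed only when the XBP1 transcript is spliced, served as the readout of cellular IRE1α activity in an XBP1-Luc reporter line.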

| SMILES | toxicity in cells [1] | pIC50 [2] |
| --- | --- | --- |
| Cc1cc(=O)oc2c(C=O)c(O)ccc12 [Example 4μ8C] | no measurable toxicity | – |
| Cc1ccc2c(NC(=O)C(Cl)Cl)cccc2c1Oc1ncccc1-c1ccnc(N[C@H]2CCCNC2)n1 [Example 338, (S)-2,2-Dichloro-N-(6-methyl-5-(3-(2-(piperidin-3-ylamino)pyrimidin-4-yl)pyridin-2-yloxy)naphthalen-1-yl)acetamide] | – | 6.79 |
| Cc1ccc2c(NS(=O)(=O)C3CCCC3)cccc2c1Oc1ncccc1-c1ccnc(N[C@H]2CCCNC2)n1 [Example 120, (S)—N-(6-Methyl-5-((3-(2-(piperidin-3-ylamino)pyrimidin-4-yl)pyridin-2-yl)oxy)naphthalen-1-yl)cyclopentanesulfonamide hydrochloride] | – | 6.74 |
| Cc1ncc(S(=O)(=O)Nc2cccc3c(Oc4ncccc4-c4ccnc(N[C@H]5CCCNC5)n4)c(C)ccc23)s1 [Example 210, (S)-2-Methyl-N-(6-methyl-5-((3-(2-(piperidin-3-ylamino)pyrimidin-4-yl)pyridin-2-yl)oxy)naphthalen-1-yl)thiazole-5-sulfonamide] | – | 6.34 |
| CCc1nc(CNc2cccc3c(Oc4ncccc4-c4ccnc(N[C@H]5CCCNC5)n4)c(C)ccc23)cs1 [Example 345, (S)-4-(2-((5-(((2-Ethylthiazol-4-yl)methyl)amino)-2-methylnaphthalen-1-yl)oxy)pyridin-3-yl)-N-(piperidin-3-yl)pyrimidin-2-amine] | – | 6.77 |

From patent publication US10968203B2, “Pyrimidinyl-pyridyloxy-naphthyl compounds and methods of treating IRE1-related diseases and disorders” (Genentech, Inc., priority 2017, dated 2021)
